Laboratory results reported in patent US5019492A, “Photographic element and process comprising a blocked photographically useful compound” (Eastman Kodak Company, priority 1989, dated 1991).

Tests used:
[1] = Unblocking of shifted masking coupler in fixed unexposed strips (density at 520 nm); details: blocked compound
Protocol: Each compound was dispersed in an equal weight of 2,4-di-t-pentylphenol and coated in the following format on a poly(ethylene terephthalate) film support (unless otherwise specified, component amounts are given in mg/m^2 with silver halide counted as silver):
OVERCOAT Gelatin (2691); bis(vinylsulfonyl-
LAYER: methyl) ether hardener (1.75% of
EMULSION Gelatin (3767); unsensitized AgBr
LAYER: emulsion (906); masking coupler
Unexposed strips of this coated element were soaked 1 minute in a fixing solution to remove silver halide, washed, and then immersed in one of the following processing solutions at temperatures conventionally used for processing in a KODAK C-41 process:
P-1: pH 10 carbonate buffer
P-2: pH 10 carbonate buffer with 0.024M hydroxylamine sulfate
P-3: C-41 color developer with hydroxylamine sulfate omitted
P-4: C-41 color developer solution containing hydroxylamine sulfate

[2] = Deblocking of blocked filter dyes in C-41 developer with or without hydroxylamine sulfate at 38° C.; details: unblocked dye
Protocol: FILTER DYE Gelatin (4844); blocked filter dye
bis(vinylsulfonylmethyl) ether
Strips of each coating were soaked at 38° C. in C-41 developer or in the same C-41 developer formulation from which hydroxylamine sulfate (HAS) had been omitted. The rate of deblocking of each filter dye was followed by measuring the density at the absorption maximum of the unblocked dye at selected time intervals.

[3] = Model deblocking (hydrolysis) half-lives of esters with mononucleophile (A+B) or dinucleophile hydroxylamine (A+C), pH 10, 25° C.; assay type: physicochemical; details: for rate enhancement due to dinucleophile (hydroxylamine) participation, compared with comparison esters E-4 and E-5: pH 10.0, 25° C.; for Ratio (A+B half-life to A+C half-life): rate enhancement due to hydroxylamine
Protocol: Model studies were conducted on esters E-1 through E-5 to determine the possible rate enhancement which could be attained by using a dinucleophile rather than a mononucleophile to promote the removal from a phenolic moiety of a blocking group of this invention. Aqueous solutions A, B, and C, each containing 50% by volume of acetonitrile were prepared as follows (a separate solution A for each ester):
Solution A: 2.5 × 10^-4 M ester (or 2.5 × 10^-5 M
Solution B: 25% by volume carbonate buffer
(ionic strength 0.75); 0.05 N KCl
Solution C: Solution B with added 0.05 M
Then equal volumes of A and B (or A and C) were mixed at 25° C. to give a pH 10.0 solution and the reaction was followed by spectrophotometric measurements of the phenol (272 nm) or p-nitrophenol (402 nm) produced with time. In each case a reaction half-life (t1/2) was calculated from the equation t1/2 =1n(2)/k, where 1n(2) is the natural logarithm of 2 and k is the pseudo first-order rate constant calculated for the reaction. Smaller half-lives thus indicate more rapid reactions. The A+B combination provides an alkaline solution in which the main reactant is hydroxide ion (a mononucleophile) while in the A+C combination the active reactant is hydroxylamine (a dinucleophile). A ratio of the A+B half-life to the A+C half-life provides a measure of rate enhancement due to participation of hydroxylamine in the deblocking reaction.

| Compound | λmax (Unblocked) [2] | rate enhancement due to dinucleophile (hydroxylamine) participation, compared with comparison esters E-4 and E-5 [3] | Ratio (A+B half-life to A+C half-life) [3] | other results |
| --- | --- | --- | --- | --- |
| CCC(C)(C)c1ccc(OCCCCNC(=O)c2cc(Oc3ccc(N=Nc4cc(OC(C)C(=O)O)c5ccccc5c4OC(=O)C4(C)CCCCC4=O)cc3)c3ccccc3c2O)c(C(C)(C)CC)c1 (stereo not drawn) [Compound 3] |  |  |  | absorption maximum (blocked) [1]: about 375 nm |
| CCCCCCCCCCCCOC(=O)c1ccc(N=Nc2ccc(N(CC)C(=O)OCc3ccc(OC(=O)C4(C)CCCCC4=O)c(NS(C)(=O)=O)c3)c(OC)c2)cc1 (stereo not drawn) [Compound 4] | 440 nm |  |  |  |
| CCCCCCCCCCCCOC(=O)c1ccc(N=Nc2ccc(N(CC)C(=O)OCc3ccc(OC(=O)C4(C)CCCCC4=O)c(Cl)c3)c(OC)c2)cc1 (stereo not drawn) [Compound 5] | 440 nm |  |  |  |
| CCCCCCCCCCCCN(C(=O)OCc1ccc(OC(=O)C2(C)CCCCC2=O)c(NS(C)(=O)=O)c1)c1ccc(N=Nc2ccc([N+](=O)[O-])cc2C(=O)OC)cc1OC (stereo not drawn) [Compound 6] | 495 nm |  |  |  |
| CC(=O)C(C)(C)C(=O)Oc1ccc([N+](=O)[O-])cc1 [Compound E-1] |  | twenty to seventy thousand times greater | 36 × 10^3 |  |
| CC(=O)C(C)(C)C(=O)Oc1ccccc1 [Compound E-2] |  | twenty to seventy thousand times greater | 93 × 10^3 |  |
| CC1(C(=O)Oc2ccccc2)CCCCC1=O (stereo not drawn) [Compound E-3] |  | twenty to seventy thousand times greater | 3.2 × 10^6 |  |
| CC(=O)CCC(=O)Oc1ccccc1 [Compound E-4, reference compound] |  |  | 47 |  |
| CC(=O)CC(C)(C)C(=O)Oc1ccccc1 [Compound E-5, reference compound] |  |  | 166 |  |
